Experimental data as given in PubChem BioAssay (NCI).
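Results reflect a 48-hour exposure of cells in 96-well plates to compound at five concentrations. Here, GI50 denotes the concentration required for 50% inhibition of growth. At the TGI there is no net growth.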

Key:
Assay in all cases: growth of human tumour cells (NCI), 48 h
MALME-3M melanoma = tested on: MALME-3M melanoma
LOX IMVI melanoma = tested on: LOX IMVI melanoma
UACC-257 melanoma = tested on: UACC-257 melanoma
SR leukemia = tested on: SR leukemia
SK-MEL-5 melanoma = tested on: SK-MEL-5 melanoma
UO-31 renal = tested on: UO-31 renal
SF-268 CNS = tested on: SF-268 CNS
IGROV1 ovarian = tested on: IGROV1 ovarian
HCC-2998 colon = tested on: HCC-2998 colon

Row | SMILES | GI50 (MALME-3M melanoma) [µM] | TGI (MALME-3M melanoma) [µM] | GI50 (LOX IMVI melanoma) [nM] | TGI (LOX IMVI melanoma) [µM] | GI50 (UACC-257 melanoma) [nM] | TGI (UACC-257 melanoma) [µM] | GI50 (SR leukemia) [nM] | TGI (SR leukemia) [µM] | GI50 (SK-MEL-5 melanoma) [µM] | TGI (SK-MEL-5 melanoma) [µM] | GI50 (UO-31 renal) [µM] | TGI (UO-31 renal) [µM] | GI50 (SF-268 CNS) [µM] | TGI (SF-268 CNS) [µM] | GI50 (IGROV1 ovarian) [µM] | TGI (IGROV1 ovarian) [µM] | GI50 (HCC-2998 colon) [µM] | TGI (HCC-2998 colon) [µM]
1 | O=C(O)c1ccc2c(c1)CCCC(c1ccc(Cl)cc1Cl)=C2c1ccc(O[C@H]2CCN(CCCF)C2)cc1 | 14.7 | 35.4 | 11000 | 26.1 | 14100 | 30 | 4870 | 20.7 | 10.8 | 23.2 | 9.76 | 25.6 | 12.1 | 28.5 | 13.8 | 35.6 | 13.6 | 27.9
2 | Cc1sc2nc3c4ccccc4c(NCCCN(C)C)nn3c(=O)c2c1C | 1.97 | 4.96 | 2000 | 6.85 | 2220 | 4.79 | 1330 | 3.52 | 3.01 | 9.8 | 3.13 | 16.7 | 9.66 | 24.1 | 5.3 | 24.6 | 7.88 | 20.7
3 | COc1cc(C(=O)Nc2cc3c(cc2Oc2cc(C)cc(C)c2)C(=O)N(C)[C@@H](CC(=O)N(C)O)C(=O)N3)c(Br)c(OC)c1OC | < 0.00333 | < 0.00333 | < 3.33 | < 0.00333 | < 3.33 | 0.00475 | < 3.33 | 0.00904 | < 0.00333 | 0.0116 | 0.0255 | 0.413 | < 0.00333 | 0.0067 | < 0.00333 | 0.0104 | < 0.00333 | < 0.00333
4 | CCC[n+]1cc2cc(OC)c(OC)cc2c2c1-c1cc3c(cc1C2)OCO3 | 1.65 | 4.01 | 8250 | > 62.2 | 1190 | 3.87 | 2180 | 26.2 | 2.09 | 7.11 | 13.1 | 35.1 | 0.568 | 5.84 | 2.27 | 12.6 | 3.99 | 14.9
5 | COc1ccc2[nH]c(O)c(C(=Nc3ccc(N(C)C(=O)CN4CCN(C)CC4)cc3)c3ccccc3)c2c1 | 1.27 | 2.85 | 1020 | 2.19 | 1730 | 4.08 | 230 | 1.45 | 1.75 | 3.43 | 1.45 | 8.45 | 2.1 | 7.55 | 1.36 | 10.1 | 2.47 | 8.59
6 | COc1cc(-c2cn(-c3ccc(Cl)c(Cl)c3)c(=O)n2C(C)=O)cc(OC)c1OC | 15.3 | 33.3 | 13700 | 28 | 7510 | 23.2 | 14800 | 34.5 | 12.7 | 25.3 | 12 | 27.4 | 6.92 | 30 | 5.34 | 17.6 | 14.9 | 29.8
7 | COc1ccc(Cn2cc3c(c2)-c2oncc2CC3)cc1 | 7.24 | 54.5 | 6990 | > 100 | 12300 | > 85.1 | 1410 | 5.38 | 3.21 | 12.6 | 5.16 | > 90.7 | 8.19 | > 100 | 4.56 | > 100 | 5.98 | 27.5
8 | Fc1cc2[nH]ncc2c2c3c(c(-c4cn[nH]c4C(F)(F)F)nc12)C1CCC3C1 (centres undefined) | 1.45 | 4.85 | 818 | 3.33 | 1310 | 4.51 | 645 | > 50 | 0.74 | 1.52 | 0.767 | 1.97 | 1.16 | 4.64 | 0.994 | 3.77 | 1.38 | 5.57
9 | CN1CC[C@]2(C)c3ccc(O)cc3CC3CCCC1C32C (some centres undefined) |  | > 100 |  | > 100 |  | > 100 |  | > 100 |  | > 100 |  | > 100 |  | > 100 |  | > 100 |  | > 100
10 | Cc1cc2c(cc1C)N(C(=O)CCl)CCN2C(=O)CCl | 1.57 | 4.5 | 173 | 0.365 | 1300 | 2.71 | 421 | 2.65 | 0.64 | 1.93 | 1.52 | 3.48 | 1.82 | 3.89 | 0.62 | > 19.9 | 1.78 | 3.3
11 | COc1ccc(-c2ccc(-c3ccc(C(=N)N)cn3)o2)cc1 | 3.25 | 7.32 | 2580 | 6.86 | 2180 | 4.69 | 3110 | 10.3 | 3.43 | 14.1 | 2.68 | 17.3 | 11.2 | 25.3 | 5.29 | 19 | 2.45 | 5.71
12 | CCn1c(-c2nonc2N)nc2c(C#CC(C)(C)O)nc(OCCNC)cc21 | 7.69 | 20.6 | 6880 | > 25 | 7960 | 24.7 | 9560 | > 21.8 | 5.19 | 12 | 8.9 | > 25 | 7.94 | > 25 | 8.13 | > 25 | 5.34 | > 25
13 | COc1ccccc1/C=C/C(=O)c1ccccc1 | 15.4 | 31.6 | 2060 | 5.07 | 13800 | 27.4 | 1770 |  | 12.7 | 25.7 | 4.69 | 17.9 | 13.1 | 27 | 2.2 | 8.7 | 17 | 31.8
